Source: patent US20210114983A1, “Cathepsin C inhibitors” (National Institute of Biological Sciences, Beijing, priority 2018, published 2021)

The compounds below were run against rhCatC (Cathepsin C) (Homo sapiens, UniProt P53634) (assay: In Vitro CatC Enzyme Assay). Details: read-out: Cat C Enzy (Cathepsin C inhibitory activity, IC50).
Format: biochemical
Description: In Vitro CatC Enzyme Assay
The CatC enzyme assay was performed in black 384-well plate. Firstly, rhCatC (440 nM) was activated by rhCatL (300 nM) in activation buffer (25 mM MES, 5 mM DTT, pH 6.0) at room temperature for 2 h and then activated rhCatC was diluted to 4.4 nM in assay buffer (25 mM MES, 50 mM NaCl, 5 mM DTT, 0.01% (v/v) Triton X100, pH 6.0), 14 μL activated rhCatC and 1 μL compound in 10% DMSO or 10% DMSO were incubated at room temperature for 3 h, and 5 μL substrate (Gly-Phe-AFC) was added to final concentration of 100 μM. After 60 min reaction, the product of the reaction was measured in the Enspire plate reader using Ex λ400 nm and Em λ505 nm for AFC. A standard irreversible CatC inhibitor 10 by AstraZeneca (J. Med. Chem. 2014, 57, 2357-2367) was used as an inhibitor control in the assay.

Chain of rhCatC (Cathepsin C) (P53634 25-134 limits assumed): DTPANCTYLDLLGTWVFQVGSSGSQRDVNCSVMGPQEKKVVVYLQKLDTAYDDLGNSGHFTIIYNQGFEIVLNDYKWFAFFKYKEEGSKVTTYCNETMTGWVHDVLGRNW
Chain of rhCatC (Cathepsin C) (P53634 231-394 limits assumed): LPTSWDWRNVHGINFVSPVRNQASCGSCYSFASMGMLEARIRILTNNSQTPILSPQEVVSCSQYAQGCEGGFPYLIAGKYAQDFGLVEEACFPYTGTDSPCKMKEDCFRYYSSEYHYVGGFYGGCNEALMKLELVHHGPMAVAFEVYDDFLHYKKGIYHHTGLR
Chain of rhCatC (Cathepsin C) (P53634 395-463 limits assumed): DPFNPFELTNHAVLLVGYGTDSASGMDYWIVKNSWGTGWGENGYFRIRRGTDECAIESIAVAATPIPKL

`C=CC(=O)Nc1cc(Oc2nc(Nc3ccc(N4CCN(C)CC4)nc3OC)ccc2N2CCCCC2)ccc1C` [Compound 35, N-(5-((6-((2-methoxy-6-(4-methylpiperazin-1-yl)pyridin-3-yl)amino)-3-(piperidin-1-yl)pyridin-2-yl)oxy)-2-methylphenyl)acrylamide] and `C=CC(=O)Nc1cc(Oc2nc(Nc3ccc(N4CCN(C)CC4)cc3)ccc2N2CCCCC2)ccc1C` [Compound 38, N-(2-methyl-5-((6-((4-(4-methylpiperazin-1-yl)phenyl)amino)-3-(piperidin-1-yl)pyridin-2-yl)oxy)phenyl)acrylamide] fall in the same range of IC50: 3 to 300 nM for the first, 3 to 300 nM for the second.

`C=CC(=O)Nc1cc(Oc2nc(Nc3ccc(N4CCN(C(C)=O)CC4)cc3OC)ccc2N2CCCCC2)ccc1C` [Compound 36, N-(5-((6-((4-(4-acetylpiperazin-1-yl)-2-methoxyphenyl)amino)-3-(piperidin-1-yl)pyridin-2-yl)oxy)-2-methylphenyl)acrylamide] and `C#CCN1CCN(c2ccc(Nc3ccc(N4CCCCC4)c(Oc4ccc(C)c(NC(=O)C=C)c4)n3)c(OC)c2)CC1` [Compound 56] fall in the same range of IC50: 3 to 300 nM for the first, 3 to 300 nM for the second.

Compared with `C=CC(=O)Nc1cc(Oc2nc(Nc3ccc(N4CCC(N(C)C)CC4)cc3OC)ccc2N2CCCCC2)ccc1C` [Compound 37, N-(5-((6-((4-(4-(dimethylamino)piperidin-1-yl)-2-methoxyphenyl)amino)-3-(piperidin-1-yl)pyridin-2-yl)oxy)-2-methylphenyl)acrylamide], `C=CC(=O)Nc1cc(Oc2nc(Nc3ccc(N4CCC(N(C)C)CC4)cn3)ccc2N2CCCCC2)ccc1C` [Compound 55] is higher in IC50: 3 to 300 nM for the first, 300 to 30000 nM for the second. The first is the more potent here.

`C=CC(=O)Nc1cc(Oc2nc(Nc3ccc(N4CCN(C)CC4)cc3OC)ccc2N2CCCC2)ccc1OC` [Compound 39, N-(2-methoxy-5-((6-((2-methoxy-4-(4-methylpiperazin-1-yl)phenyl)amino)-3-(pyrrolidin-1-yl)pyridin-2-yl)oxy)phenyl)acrylamide] and `C=CC(=O)Nc1cc(Oc2nc(Nc3ccc(N4CCN(C)CC4)cc3OC)ccc2N2CCCC2)ccc1C(F)(F)F` [Compound 44, N-(5-((6-((2-methoxy-4-(4-methylpiperazin-1-yl)phenyl)amino)-3-(pyrrolidin-1-yl)pyridin-2-yl)oxy)-2-(trifluoromethyl)phenyl)acrylamide] fall in the same range of IC50: 3 to 300 nM for the first, 3 to 300 nM for the second.

First: C=CC(=O)Nc1cc(Oc2cccc(Nc3ccc(N4CCN(C)CC4)cc3OC)n2)ccc1OC [Compound 40, N-(2-methoxy-5-((6-((2-methoxy-4-(4-methylpiperazin-1-yl)phenyl)amino)pyridin-2-yl)oxy)phenyl)acrylamide]
Second: C=CC(=O)Nc1cc(Oc2cccc(Nc3ccc(N4CCN(C)CC4)cc3OC)n2)ccc1C [Compound 43, N-(5-((6-((2-methoxy-4-(4-methylpiperazin-1-yl)phenyl)amino)pyridin-2-yl)oxy)-2-methylphenyl)acrylamide]
The IC50 of the first is higher: 300 to 30000 nM for the first, 3 to 300 nM for the second.

`C=CC(=O)Nc1cccc(Oc2nc(Nc3ccc(N4CCN(C)CC4)cc3OC)ccc2N2CCCC2)c1C` [Compound 41, N-(3-((6-((2-methoxy-4-(4-methylpiperazin-1-yl)phenyl)amino)-3-(pyrrolidin-1-yl)pyridin-2-yl)oxy)-2-methylphenyl)acrylamide] and `C=CC(=O)Nc1ccc(C)c(Oc2nc(Nc3ccc(N4CCN(C)CC4)cc3OC)ccc2N2CCCC2)c1` [Compound 42, N-(3-((6-((2-methoxy-4-(4-methylpiperazin-1-yl)phenyl)amino)-3-(pyrrolidin-1-yl)pyridin-2-yl)oxy)-4-methylphenyl)acrylamide] fall in the same range of IC50: 300 to 30000 nM for the first, 300 to 30000 nM for the second.

`C=CC(=O)Nc1cc(Oc2nc(Nc3ccc(N4CCN(C)CC4)cc3OC)ccc2N2CCCCC2)ccc1C(F)(F)F` [Compound 45] and `C=CC(=O)Nc1cccc(Oc2nc(Nc3ccc(N4CCN(C)CC4)cc3OC)ccc2N2CCCCC2)c1` [Compound 52, N-(3-((6-((2-methoxy-4-(4-methylpiperazin-1-yl)phenyl)amino)-3-(piperidin-1-yl)pyridin-2-yl)oxy)phenyl)acrylamide] fall in the same range of IC50: 3 to 300 nM for the first, 3 to 300 nM for the second.

`COc1cc(N2CCN(C)CC2)ccc1Nc1ccc(N2CCCCC2)c(Oc2ccc(C)c(NC(=O)C=C(C)C)c2)n1` [Compound 46, N-(5-((6-((2-methoxy-4-(4-methylpiperazin-1-yl)phenyl)amino)-3-(piperidin-1-yl)pyridin-2-yl)oxy)-2-methylphenyl)-3-methylbut-2-enamide] and `C=C(F)C(=O)Nc1cc(Oc2nc(Nc3ccc(N4CCN(C)CC4)cc3OC)ccc2N2CCCCC2)ccc1C` [Compound 49, 2-fluoro-N-(5-((6-((2-methoxy-4-(4-methylpiperazin-1-yl)phenyl)amino)-3-(piperidin-1-yl)pyridin-2-yl)oxy)-2-methylphenyl)acrylamide] fall in the same range of IC50: 300 to 30000 nM for the first, 300 to 30000 nM for the second.

First: CC#CC(=O)Nc1cc(Oc2nc(Nc3ccc(N4CCN(C)CC4)cc3OC)ccc2N2CCCCC2)ccc1C [Compound 47, N-(5-((6-((2-methoxy-4-(4-methylpiperazin-1-yl)phenyl)amino)-3-(piperidin-1-yl)pyridin-2-yl)oxy)-2-methylphenyl)but-2-ynamide]
Second: C#CC(=O)Nc1cc(Oc2nc(Nc3ccc(N4CCN(C)CC4)cc3OC)ccc2N2CCCCC2)ccc1C [Compound 48, N-(5-((6-((2-methoxy-4-(4-methylpiperazin-1-yl)phenyl)amino)-3-(piperidin-1-yl)pyridin-2-yl)oxy)-2-methylphenyl)propiolamide]
The IC50 of the first is higher: 300 to 30000 nM for the first, 3 to 300 nM for the second.

`C=CC(=O)Nc1cc(Oc2nc(Nc3ccc(N4CCN(C)CC4)cc3OC)ccc2Cl)ccc1C(F)(F)F` [Compound 50, N-(5-((3-chloro-6-((2-methoxy-4-(4-methylpiperazin-1-yl)phenyl)amino)pyridin-2-yl)oxy)-2-(trifluoromethyl)phenyl)acrylamide] and `C=CC(=O)Nc1cc(Oc2cccc(Nc3ccc(N4CCN(C)CC4)cc3OC)n2)ccc1C(F)(F)F` [Compound 51, N-(5-((6-((2-methoxy-4-(4-methylpiperazin-1-yl)phenyl)amino)pyridin-2-yl)oxy)-2-(trifluoromethyl)phenyl)acrylamide] fall in the same range of IC50: 3 to 300 nM for the first, 3 to 300 nM for the second.

`C=CC(=O)Nc1cccc(Oc2nc(Nc3ccc(N4CCN(C)CC4)cc3OC)ccc2N2CCCCCC2)c1` [Compound 53, N-(3-((3-(azepan-1-yl)-6-((2-methoxy-4-(4-methylpiperazin-1-yl)phenyl)amino)pyridin-2-yl)oxy)phenyl)acrylamide] and `C=CC(=O)Nc1cc(Oc2nc(Nc3ccc(N4CCNCC4)cc3OC)ccc2N2CCCCC2)ccc1C` [Compound 54] fall in the same range of IC50: 3 to 300 nM for the first, 3 to 300 nM for the second.
